From US20220213178A1, “Enhanced Transfection” (The University of Nottingham, priority 2019, published 2022)

Key:
Assay type in all cases: cell-based
[1] = tested on: RAW264.7 mouse macrophage cells; experiment: GET transfection of pCMV-Gluc pDNA into RAW264.7 cells (FIG. 2); conditions: 20,000 cells, 24 hours post-transfection of 1 μg pCMV-Gluc pDNA with GET
Description: Experiment on 20,000 RAW264.7 mouse macrophage cells, measured at 24 hours post-transfection of 1 μg pCMV-Gluc pDNA with GET. T=TPA(μM), S=SAHA (μM).

[2] = tested on: LCL lymphoblastoid human B cells; experiment: GET transfection of pCMV-Gluc pDNA into LCL cells (FIG. 3); conditions: 20,000 cells, 24 hours post-transfection of 1 μs pCMV-Gluc pDNA with GET; short exposures of TPA
Description: Experiment on 20,000 LCL lymphoblastoid human B cells, measured at 24 hours post-transfection of […] pCMV-Gluc pDNA with GET. T=TPA(μM), S=SAHA (μM). TPA is shown to have the most effect on transfection in LCL cells, and it is enhanced by SAHA. There is effectively no transfection without these modulators.

[3] = tested on: T2 hybrid human T/B cells; experiment: GET transfection of pCMV-Gluc pDNA into T2 cells (FIG. 1); conditions: 20,000 cells, 24 hours post-transfection of 1 μg pCMV-Gluc pDNA with GET
Description: Experiment on 20,000 T2 hybrid human T/B cells, measured at 24 hours post-transfection of 1 μg pCMV-Gluc pDNA with GET. T=TPA(μM), S=SAHA (μM). TPA is shown as the major effect on transfection efficiency in T2 cells.

Structure (SMILES): O=C(CCCCCCC(=O)Nc1ccccc1)NO [SAHA, suberoylanilide hydroxamic acid]
- transfection of RAW264.7 cells (Gluc) [1]: significantly enhances transfection
- transfection of LCL cells (Gluc) [2]: significantly enhances transfection

Structure (SMILES): CCCCCCCCCCCCCC(=O)O[C@@H]1[C@@H](C)[C@@]2(O)[C@@H](C=C(CO)C[C@]3(O)C(=O)C(C)=C[C@@H]23)[C@@H]2C(C)(C)[C@]12OC(C)=O [TPA, phorbol 12-myristate 13-acetate]
- transfection of LCL cells (Gluc) [2]: significantly enhances transfection
- transfection of T2 cells (Gluc) [3]: significantly enhances transfection
